Reference: US9409905B2, “Antibacterial compounds and methods for use” (PTC THERAPEUTICS, INC., priority 2011, dated 2016)
Values after ≈ are worked out from the molar mass of the structure shown. Read-outs that look alike come from different tables or passages of the source.

What was measured:
[1] = tested on: Escherichia coli (E. coli) BAS849; assay: Antibacterial activity, microbroth dilution MIC (Table 1); assay type: cell-based
In short: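 Read-out: visual absence of growth. The lowest concentration meeting this gives the MIC, expressed in μg/mL, with microbroth dilution as the method.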

[2] = tested on: Staphylococcus aureus (S. aureus) 29213; assay: as above; assay type: cell-based
In short: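 Broth microdilution; endpoint = no macroscopic growth; value = lowest inhibiting concn, μg/mL.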

[3] = tested on: E. coli 25922; assay: as above; assay type: cell-based, Escherichia coli
In short: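 Using broth microdilution, MIC endpoints (μg/mL) mark where visible growth no longer appears; the panel spans sensitive and control Gram-negative strains plus a Gram-positive strain.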

[4] = tested on: E. coli LZ3111; assay: Antibacterial activity, MIC, quinolone resistant strain (Table 2); assay type: cell-based; settings: Escherichia coli, LZ3111, read-out: MIC LZ3111
In short: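 Broth microdilution. Read-out: MIC in μg/mL, taken as lowest concentration with no macroscopically visible growth.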

[5] = tested on: E. coli ELZ4251; assay: Antibacterial activity, MIC, multi-drug resistant clinical isolate (Table 3); assay type: cell-based; settings: Escherichia coli
Excerpt: The antibacterial activity from a microbroth dilution method may be presented as the minimum inhibitory concentration (MIC in μg/mL). The MIC value is the lowest concentration of drug which prevents macroscopically visible growth under test conditions.
Antibacterial activity of test compounds against E. coli ELZ4000 and E. coli ELZ4251 multi-drug resistant clinical isolates is shown in Table 3.

[6] = tested on: Acinetobacter baumannii (A. baumannii) BAA747; assay: Antibacterial activity, MIC (Table 4); assay type: cell-based
In short: (§1)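 MIC in μg/mL by microbroth dilution, scored as the lowest level that suppresses visible growth.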

[7] = tested on: Klebsiella pneumoniae (K. pneumoniae) 35657; assay: Antibacterial activity, MIC (Table 4); assay type: cell-based
In short: as §1

[8] = tested on: A. baumannii MXX2240; assay: Antibacterial activity, MIC, resistant strain (Table 4); assay type: cell-based; settings: Acinetobacter baumannii
In short: as §1

[9] = tested on: K. pneumoniae MXX1232; assay: as above; assay type: cell-based; settings: Klebsiella pneumoniae
In short: as §1

[10] = tested on: Pseudomonas aeruginosa (P. aeruginosa) 27853; assay: Antibacterial activity, MIC (Table 5); assay type: cell-based
In short: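 Microbroth dilution; MIC (μg/mL) = lowest concentration with no macroscopically visible growth.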

[11] = microbroth dilution, super sensitive Gram-negative E. coli BAS849, read-out: MIC, BAS849
[12] = microbroth dilution, Gram-positive S. aureus 29213, read-out: MIC, 29213
[13] = Escherichia coli, microbroth dilution, control Gram-negative E. coli 25922 strain, read-out: MIC, 25922
[14] = A. baumannii BAA747, read-out: MIC, BAA747
[15] = K. pneumoniae 35657, read-out: MIC, 35657
[16] = MXX2240, resistant A. baumannii MMX2240, multi-drug resistant clinical isolate, read-out: MIC, MMX2240
[17] = MXX1232, resistant K. pneumoniae MMX1232, multi-drug resistant clinical isolate, read-out: MIC, MMX1232
[18] = P. aeruginosa 27853, read-out: MIC, 27853
[19] = Escherichia coli, 25922, read-out: MIC, 25922
[20] = MXX2240, read-out: MIC, MMX2240
[21] = MXX1232, read-out: MIC, MMX1232

| Structure (SMILES) | MIC [1, 11] | MIC [2, 12] | MIC [3, 13] | MIC [4] | MIC [5] | MIC [6, 14] | MIC [7, 15] | MIC [8, 16] | MIC [9, 17] | MIC [10, 18] | MIC ([1]; read-out: MIC, BAS849) | MIC ([2]; read-out: MIC, 29213) | MIC [3, 19] | MIC ([6]; BAA747, read-out: MIC, BAA747) | MIC ([7]; read-out: MIC, 35657) | MIC [8, 20] | MIC [9, 21] | MIC ([10]; read-out: MIC, 27853) |
| --- | --- | --- | --- | --- | --- | --- | --- | --- | --- | --- | --- | --- | --- | --- | --- | --- | --- | --- |
| CCCCNCc1cc2cc(-c3[nH]c(=O)c(C(=O)O)c(O)c3CC)ccc2n1C [Cpd 333, 6-(2-((butylamino)methyl)-1-methyl-1H-indol-5-yl)-5-ethyl-4-hydroxy-2-oxo-1,2-dihydropyridine-3-carboxylic acid] | < 1 mg/L | 3.5 to 12.5 mg/L (≈ 8.81 to 31.4 µM) | < 1 mg/L | 3.5 to 12.5 mg/L (≈ 8.81 to 31.4 µM) | 12.5 to 150 mg/L (≈ 31.4 to 377 µM) | < 1 mg/L | < 1 mg/L | 1 to 3.5 mg/L (≈ 2.52 to 8.81 µM) | 12.5 to 150 mg/L (≈ 31.4 to 377 µM) | 12.5 to 150 mg/L (≈ 31.4 to 377 µM) |  |  |  |  |  |  |  |  |
| CCCCCNCc1cc2cc(-c3[nH]c(=O)c(C(=O)O)c(O)c3CC)ccc2n1C [Cpd 334, 5-ethyl-4-hydroxy-6-(1-methyl-2-((pentylamino)methyl)-1H-indol-5-yl)-2-oxo-1,2-dihydropyridine-3-carboxylic acid] | < 1 mg/L | 12.5 to 150 mg/L (≈ 30.4 to 365 µM) | < 1 mg/L | 12.5 to 150 mg/L (≈ 30.4 to 365 µM) | 12.5 to 150 mg/L (≈ 30.4 to 365 µM) | 1 to 3.5 mg/L (≈ 2.43 to 8.51 µM) | 1 to 3.5 mg/L (≈ 2.43 to 8.51 µM) | 12.5 to 150 mg/L (≈ 30.4 to 365 µM) | 12.5 to 150 mg/L (≈ 30.4 to 365 µM) | 12.5 to 150 mg/L (≈ 30.4 to 365 µM) |  |  |  |  |  |  |  |  |
| CCCCCCNCc1cc2cc(-c3[nH]c(=O)c(C(=O)O)c(O)c3CC)ccc2n1C [Cpd 335, 5-ethyl-6-(2-((hexylamino)methyl)-1-methyl-1H-indol-5-yl)-4-hydroxy-2-oxo-1,2-dihydropyridine-3-carboxylic acid] | < 1 mg/L | 1 to 3.5 mg/L (≈ 2.35 to 8.23 µM) | < 1 mg/L | 1 to 3.5 mg/L (≈ 2.35 to 8.23 µM) | 12.5 to 150 mg/L (≈ 29.4 to 353 µM) | 3.5 to 12.5 mg/L (≈ 8.23 to 29.4 µM) | 1 to 3.5 mg/L (≈ 2.35 to 8.23 µM) | 12.5 to 150 mg/L (≈ 29.4 to 353 µM) | 12.5 to 150 mg/L (≈ 29.4 to 353 µM) | 12.5 to 150 mg/L (≈ 29.4 to 353 µM) |  |  |  |  |  |  |  |  |
| CCCCCCCNCc1cc2cc(-c3[nH]c(=O)c(C(=O)O)c(O)c3CC)ccc2n1C [Cpd 336, 5-ethyl-6-(2-((heptylamino)methyl)-1-methyl-1H-indol-5-yl)-4-hydroxy-2-oxo-1,2-dihydropyridine-3-carboxylic acid] | < 1 mg/L | < 1 mg/L | 3.5 to 12.5 mg/L (≈ 7.96 to 28.4 µM) | < 1 mg/L | 12.5 to 150 mg/L (≈ 28.4 to 341 µM) | 12.5 to 150 mg/L (≈ 28.4 to 341 µM) | 12.5 to 150 mg/L (≈ 28.4 to 341 µM) | 12.5 to 150 mg/L (≈ 28.4 to 341 µM) | 12.5 to 150 mg/L (≈ 28.4 to 341 µM) | 12.5 to 150 mg/L (≈ 28.4 to 341 µM) |  |  |  |  |  |  |  |  |
| CCCCCCCCNCc1cc2cc(-c3[nH]c(=O)c(C(=O)O)c(O)c3CC)ccc2n1C [Cpd 337, 5-ethyl-4-hydroxy-6-(1-methyl-2-((octylamino)methyl)-1H-indol-5-yl)-2-oxo-1,2-dihydropyridine-3-carboxylic acid] | < 1 mg/L | 1 to 3.5 mg/L (≈ 2.2 to 7.72 µM) | 12.5 to 150 mg/L (≈ 27.6 to 331 µM) | 3.5 to 12.5 mg/L (≈ 7.72 to 27.6 µM) | 12.5 to 150 mg/L (≈ 27.6 to 331 µM) | 12.5 to 150 mg/L (≈ 27.6 to 331 µM) | 12.5 to 150 mg/L (≈ 27.6 to 331 µM) | 12.5 to 150 mg/L (≈ 27.6 to 331 µM) | 12.5 to 150 mg/L (≈ 27.6 to 331 µM) | 12.5 to 150 mg/L (≈ 27.6 to 331 µM) |  |  |  |  |  |  |  |  |
| CCCCCCCCCNCc1cc2cc(-c3[nH]c(=O)c(C(=O)O)c(O)c3CC)ccc2n1C [Cpd 338, 5-ethyl-4-hydroxy-6-(1-methyl-2-((nonylamino)methyl)-1H-indol-5-yl)-2-oxo-1,2-dihydropyridine-3-carboxylic acid] | 1 to 3.5 mg/L (≈ 2.14 to 7.48 µM) | 3.5 to 12.5 mg/L (≈ 7.48 to 26.7 µM) | 12.5 to 150 mg/L (≈ 26.7 to 321 µM) | 12.5 to 150 mg/L (≈ 26.7 to 321 µM) | 12.5 to 150 mg/L (≈ 26.7 to 321 µM) | 12.5 to 150 mg/L (≈ 26.7 to 321 µM) | 12.5 to 150 mg/L (≈ 26.7 to 321 µM) | 12.5 to 150 mg/L (≈ 26.7 to 321 µM) | 12.5 to 150 mg/L (≈ 26.7 to 321 µM) | 12.5 to 150 mg/L (≈ 26.7 to 321 µM) |  |  |  |  |  |  |  |  |
| CCc1c(-c2ccc3c4c([nH]c3c2)CN(C)CC4)[nH]c(=O)c(C(=O)O)c1O [Cpd 446, 5-ethyl-4-(hydroxy)-6-(2-methyl-2,3,4,9-tetrahydro-1H-pyrido[3,4-b]indol-7-yl)-2-oxo-1,2-dihydropyridine-3-carboxylic acid] |  |  |  | 1 to 3.5 mg/L (≈ 2.72 to 9.53 µM) |  |  |  |  |  |  | < 1 mg/L | 12.5 to 150 mg/L (≈ 34 to 408 µM) | 1 to 3.5 mg/L (≈ 2.72 to 9.53 µM) | 3.5 to 12.5 mg/L (≈ 9.53 to 34 µM) | < 1 mg/L | 12.5 to 150 mg/L (≈ 34 to 408 µM) | 12.5 to 150 mg/L (≈ 34 to 408 µM) | 3.5 to 12.5 mg/L (≈ 9.53 to 34 µM) |
| CCc1c(-c2ccc3c4c([nH]c3c2)CN(CC)CC4)[nH]c(=O)c(C(=O)O)c1O [Cpd 447, 5-ethyl-6-(2-ethyl-2,3,4,9-tetrahydro-1H-pyrido[3,4-b]indol-7-yl)-4-hydroxy-2-oxo-1,2-dihydropyridine-3-carboxylic acid] |  |  |  | 3.5 to 12.5 mg/L (≈ 9.18 to 32.8 µM) |  |  |  |  |  |  | < 1 mg/L | 12.5 to 150 mg/L (≈ 32.8 to 393 µM) | < 1 mg/L | 3.5 to 12.5 mg/L (≈ 9.18 to 32.8 µM) | < 1 mg/L | 12.5 to 150 mg/L (≈ 32.8 to 393 µM) | 12.5 to 150 mg/L (≈ 32.8 to 393 µM) | 12.5 to 150 mg/L (≈ 32.8 to 393 µM) |
